Article PMC8212709 (Clinical and Translational Science, 2021)

Experiment: Phase I SRD/MRD safety and tolerability
Format: in vivo, human (healthy subjects)

With C=CC(=O)N1CC[C@H](Oc2nc(-c3n[nH]c(=O)[nH]3)cc3ccccc23)C1 [TAK‐020] the Deaths (MRD 3.75 mg q.d. (n = 6)) was 0 n (%), the “Serious TEAEs” value (MRD 3.75 mg q.d. (n = 6)) was 0 n (%) and the “Serious TEAEs, Not related” value (MRD 3.75 mg q.d. (n = 6)) was 0 n (%). The “Serious TEAEs, Related” value (MRD 3.75 mg q.d. (n = 6)) was 0 n (%), the TEAEs (MRD 3.75 mg q.d. (n = 6)) was 1 (16.7) n (%) and the “TEAEs Leading to DC” value (MRD 3.75 mg q.d. (n = 6)) was 0 n (%). The “TEAEs, Mild” value (MRD 3.75 mg q.d. (n = 6)) was 1 (16.7) n (%), the “TEAEs, Moderate” value (MRD 3.75 mg q.d. (n = 6)) was 0 n (%) and the “TEAEs, Not related” value (MRD 3.75 mg q.d. (n = 6)) was 0 n (%). The “TEAEs, Related” value (MRD 3.75 mg q.d. (n = 6)) was 1 (16.7) n (%), the “TEAEs, Severe” value (MRD 3.75 mg q.d. (n = 6)) was 0 n (%) and the Deaths (MRD 5.75 mg q.d. (n = 6)) was 0 n (%). For the same compound, the “Serious TEAEs” value (MRD 5.75 mg q.d. (n = 6)) was 0 n (%), the “Serious TEAEs, Not related” value (MRD 5.75 mg q.d. (n = 6)) was 0 n (%) and the “Serious TEAEs, Related” value (MRD 5.75 mg q.d. (n = 6)) was 0 n (%). The TEAEs (MRD 5.75 mg q.d. (n = 6)) was 3 (50.0) n (%), the “TEAEs Leading to DC” value (MRD 5.75 mg q.d. (n = 6)) was 0 n (%) and the “TEAEs, Mild” value (MRD 5.75 mg q.d. (n = 6)) was 3 (50.0) n (%). For the same compound, the “TEAEs, Moderate” value (MRD 5.75 mg q.d. (n = 6)) was 0 n (%), the “TEAEs, Not related” value (MRD 5.75 mg q.d. (n = 6)) was 1 (16.7) n (%) and the “TEAEs, Related” value (MRD 5.75 mg q.d. (n = 6)) was 2 (33.3) n (%). For the same compound, the “TEAEs, Severe” value (MRD 5.75 mg q.d. (n = 6)) was 0 n (%), the Deaths (MRD 13 mg q.d. (n = 6)) was 0 n (%) and the “Serious TEAEs” value (MRD 13 mg q.d. (n = 6)) was 0 n (%). The “Serious TEAEs, Not related” value (MRD 13 mg q.d. (n = 6)) was 0 n (%), the “Serious TEAEs, Related” value (MRD 13 mg q.d. (n = 6)) was 0 n (%) and the TEAEs (MRD 13 mg q.d. (n = 6)) was 3 (50.00) n (%). The “TEAEs Leading to DC” value (MRD 13 mg q.d. (n = 6)) was 0 n (%), the “TEAEs, Mild” value (MRD 13 mg q.d. (n = 6)) was 3 (50.0) n (%) and the “TEAEs, Moderate” value (MRD 13 mg q.d. (n = 6)) was 0 n (%). For the same compound, the “TEAEs, Not related” value (MRD 13 mg q.d. (n = 6)) was 2 (33.3) n (%), the “TEAEs, Related” value (MRD 13 mg q.d. (n = 6)) was 1 (16.7) n (%) and the “TEAEs, Severe” value (MRD 13 mg q.d. (n = 6)) was 0 n (%). For the same compound, the Deaths (MRD 25 mg q.d. (n = 6)) was 0 n (%), the “Serious TEAEs” value (MRD 25 mg q.d. (n = 6)) was 0 n (%) and the “Serious TEAEs, Not related” value (MRD 25 mg q.d. (n = 6)) was 0 n (%). The “Serious TEAEs, Related” value (MRD 25 mg q.d. (n = 6)) was 0 n (%), the TEAEs (MRD 25 mg q.d. (n = 6)) was 2 (33.3) n (%) and the “TEAEs Leading to DC” value (MRD 25 mg q.d. (n = 6)) was 0 n (%). For the same compound, the “TEAEs, Mild” value (MRD 25 mg q.d. (n = 6)) was 2 (33.3) n (%), the “TEAEs, Moderate” value (MRD 25 mg q.d. (n = 6)) was 0 n (%) and the “TEAEs, Not related” value (MRD 25 mg q.d. (n = 6)) was 2 (33.3) n (%). The “TEAEs, Related” value (MRD 25 mg q.d. (n = 6)) was 0 n (%), the “TEAEs, Severe” value (MRD 25 mg q.d. (n = 6)) was 0 n (%) and the Deaths (MRD 45 mg q.d. (n = 6)) was 0 n (%). For the same compound, the “Serious TEAEs” value (MRD 45 mg q.d. (n = 6)) was 0 n (%), the “Serious TEAEs, Not related” value (MRD 45 mg q.d. (n = 6)) was 0 n (%) and the “Serious TEAEs, Related” value (MRD 45 mg q.d. (n = 6)) was 0 n (%). The TEAEs (MRD 45 mg q.d. (n = 6)) was 1 (16.7) n (%), the “TEAEs Leading to DC” value (MRD 45 mg q.d. (n = 6)) was 0 n (%) and the “TEAEs, Mild” value (MRD 45 mg q.d. (n = 6)) was 1 (16.7) n (%). For the same compound, the “TEAEs, Moderate” value (MRD 45 mg q.d. (n = 6)) was 0 n (%), the “TEAEs, Not related” value (MRD 45 mg q.d. (n = 6)) was 1 (16.7) n (%) and the “TEAEs, Related” value (MRD 45 mg q.d. (n = 6)) was 0 n (%). For the same compound, the “TEAEs, Severe” value (MRD 45 mg q.d. (n = 6)) was 0 n (%), the Deaths (MRD 60 mg q.d. (n = 6)) was 0 n (%) and the “Serious TEAEs” value (MRD 60 mg q.d. (n = 6)) was 0 n (%). For the same compound, the “Serious TEAEs, Not related” value (MRD 60 mg q.d. (n = 6)) was 0 n (%), the “Serious TEAEs, Related” value (MRD 60 mg q.d. (n = 6)) was 0 n (%) and the TEAEs (MRD 60 mg q.d. (n = 6)) was 1 (16.7) n (%). For the same compound, the “TEAEs Leading to DC” value (MRD 60 mg q.d. (n = 6)) was 0 n (%), the “TEAEs, Mild” value (MRD 60 mg q.d. (n = 6)) was 1 (16.7) n (%) and the “TEAEs, Moderate” value (MRD 60 mg q.d. (n = 6)) was 0 n (%). For the same compound, the “TEAEs, Not related” value (MRD 60 mg q.d. (n = 6)) was 1 (16.7) n (%), the “TEAEs, Related” value (MRD 60 mg q.d. (n = 6)) was 0 n (%) and the “TEAEs, Severe” value (MRD 60 mg q.d. (n = 6)) was 0 n (%). For the same compound, the Deaths (MRD Overall TAK‐020 (N = 36)) was 0 n (%), the “Serious TEAEs” value (MRD Overall TAK‐020 (N = 36)) was 0 n (%) and the “Serious TEAEs, Not related” value (MRD Overall TAK‐020 (N = 36)) was 0 n (%). For the same compound, the “Serious TEAEs, Related” value (MRD Overall TAK‐020 (N = 36)) was 0 n (%), the TEAEs (MRD Overall TAK‐020 (N = 36)) was 11 (30.6) n (%) and the “TEAEs Leading to DC” value (MRD Overall TAK‐020 (N = 36)) was 0 n (%). The “TEAEs, Mild” value (MRD Overall TAK‐020 (N = 36)) was 11 (30.6) n (%), the “TEAEs, Moderate” value (MRD Overall TAK‐020 (N = 36)) was 0 n (%) and the “TEAEs, Not related” value (MRD Overall TAK‐020 (N = 36)) was 7 (19.4) n (%). The “TEAEs, Related” value (MRD Overall TAK‐020 (N = 36)) was 4 (11.1) n (%), the “TEAEs, Severe” value (MRD Overall TAK‐020 (N = 36)) was 0 n (%) and the “percentage of subjects who had TEAEs” value (MRD, overall TAK‐020 group) was 30.6%. For the same compound, the “subjects with study treatment‐related TEAEs” value (MRD, overall TAK‐020 group (four subjects)) was 11.1%, the Deaths (SRD Overall TAK‐020 (N = 54)) was 0 n (%) and the “Serious TEAEs” value (SRD Overall TAK‐020 (N = 54)) was 0 n (%). For the same compound, the “Serious TEAEs, Not related” value (SRD Overall TAK‐020 (N = 54)) was 0 n (%), the “Serious TEAEs, Related” value (SRD Overall TAK‐020 (N = 54)) was 0 n (%) and the TEAEs (SRD Overall TAK‐020 (N = 54)) was 6 (11.1) n (%). The “TEAEs Leading to DC” value (SRD Overall TAK‐020 (N = 54)) was 0 n (%), the “TEAEs, Mild” value (SRD Overall TAK‐020 (N = 54)) was 6 (11.1) n (%) and the “TEAEs, Moderate” value (SRD Overall TAK‐020 (N = 54)) was 0 n (%). The “TEAEs, Not related” value (SRD Overall TAK‐020 (N = 54)) was 3 (5.6) n (%), the “TEAEs, Related” value (SRD Overall TAK‐020 (N = 54)) was 3 (5.6) n (%) and the “TEAEs, Severe” value (SRD Overall TAK‐020 (N = 54)) was 0 n (%). For the same compound, the “clinical laboratory test results (including liver function tests), vital sign findings, cytopenias, or ECG results reported as a TEAE” value (SRD and MRD parts) was “No subject”, the Deaths (SRD single dose 0.1 mg (n = 6)) was 0 n (%) and the “Serious TEAEs” value (SRD single dose 0.1 mg (n = 6)) was 0 n (%). For the same compound, the “Serious TEAEs, Not related” value (SRD single dose 0.1 mg (n = 6)) was 0 n (%) and the “Serious TEAEs, Related” value (SRD single dose 0.1 mg (n = 6)) was 0 n (%).
